Measurements reported in BindingDB's records for doi:10.1016/j.bmcl.2005.10.026 (Pfizer, 2005).

Experiments:
[1] = Inhibition of C5a mediated human eosinophil chemotaxis
[2] = Inhibition of PAF mediated human eosinophil chemotaxis
[3] = Inhibition of Eotaxin mediated by human eosinophil chemotaxis

- IC50 (Inhibition of PDE4D): < 1 nM
- IC50 [1]: 1 nM
- IC50 [2]: 1 nM
- IC50 [3]: 3 nM
SMILES: C[C@@H](NC(=O)c1cccnc1Oc1ccc(F)cc1)c1cccs1 [(R)-2-(4-fluorophenoxy)-N-(1-(thiophen-2-yl)ethyl)nicotinamide]
